Source: ChEMBL document CHEMBL1201862, “PubChem BioAssay data set” (2004)
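How tested: cells in 96-well plates exposed to compound for 48 hours at five concentrations. At the GI50, growth is halved.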 Activity calls are given as the source filed them. No stated cut-off is given here; in the data, active = GI50 up to about 1.1 µM and inactive = higher.

What was measured:
Assay in all cases: NCI anticancer screen, dose series, 48 h
SN12C = tested on: SN12C
HCT-15 = tested on: HCT-15
A549 = tested on: A549
MCF7 = tested on: MCF7
SK-MEL-2 = tested on: SK-MEL-2
HOP-92 = tested on: HOP-92
ACHN = tested on: ACHN
K562 = tested on: K562
SNB-75 = tested on: SNB-75
NCI-H226 = tested on: NCI-H226
DU-145 = tested on: DU-145
SNB-19 = tested on: SNB-19
NCI-H460 = tested on: NCI-H460
BT-549 = tested on: BT-549
SK-MEL-28 = tested on: SK-MEL-28
SF-539 = tested on: SF-539
RXF 393 = tested on: RXF 393
786-0 = tested on: 786-0
OVCAR-5 = tested on: OVCAR-5

Row | Compound | GI50 (SN12C) | GI50 (HCT-15) | GI50 (A549) | GI50 (MCF7) | GI50 (SK-MEL-2) | GI50 (HOP-92) | GI50 (ACHN) | GI50 (K562) | GI50 (SNB-75) | GI50 (NCI-H226) | GI50 (DU-145) | GI50 (SNB-19) | GI50 (NCI-H460) | GI50 (BT-549) | GI50 (SK-MEL-28) | GI50 (SF-539) | GI50 (RXF 393) | GI50 (786-0) | GI50 (OVCAR-5)
1 | CCCc1cn2c(/C=N/NC(=N)N)c(-c3ccc([N+](=O)[O-])cc3)nc2s1 | 1.58 µM (inactive) | 1.36 µM | 1.71 µM (inactive) | 1.75 µM (inactive) | 2.13 µM (inactive) | 6.01 µM (inactive) | 1.67 µM (inactive) | 0.286 µM (active) | 1.8 µM (inactive) | 2 µM (inactive) | 1.77 µM (inactive) | 1.71 µM (inactive) | 1.93 µM (inactive) | 1.92 µM (inactive) | 1.85 µM (inactive) | 4.88 µM (inactive) | 1.73 µM (inactive) | 0.853 µM (active) | 1.71 µM (inactive)
2 | Cc1cc(C)c(NC(=S)NC(=O)c2ccccc2)cc1C | > 100 µM (inactive) | 93.1 µM | > 100 µM (inactive) | 38.2 µM (inactive) | > 100 µM (inactive) | > 100 µM (inactive) | > 100 µM (inactive) | 74 µM (inactive) | > 100 µM (inactive) | > 100 µM (inactive) | > 100 µM (inactive) | > 100 µM (inactive) | > 100 µM (inactive) | > 100 µM (inactive) | > 100 µM (inactive) | > 100 µM (inactive) | > 100 µM (inactive) | > 100 µM (inactive) | > 100 µM (inactive)
3 | CC(=O)c1c(SCCN2CCCC2)n(-c2ccccc2)c(=S)n(-c2ccccc2)c1=O | 7.16 µM (inactive) | 4.01 µM | 5.82 µM (inactive) | 1.33 µM (inactive) | 21.6 µM (inactive) | 3.27 µM (inactive) | 1.72 µM (inactive) | 2.72 µM (inactive) | 14.6 µM (inactive) | 20.9 µM (inactive) | 2.75 µM (inactive) | 28.4 µM (inactive) | 17.9 µM (inactive) | 14.5 µM (inactive) | 6.11 µM (inactive) | 6.12 µM (inactive) | 2.3 µM (inactive) | 1.6 µM (inactive) | 33.7 µM (inactive)
4 | CCOc1cc2c(cc1O)CC[C@@H]1[C@@H]2CC[C@]2(C)C(OS(=O)OC3CC[C@@H]4[C@H]5CCc6cc(O)c(OCC)cc6[C@@H]5CC[C@@]34C)CC[C@@H]12 (stereo partly specified) | 1.68 µM (inactive) | 0.507 µM | 0.689 µM (active) | 0.452 µM (active) | 0.92 µM (active) | 0.363 µM (active) | 1.88 µM (inactive) | 0.316 µM (active) | 0.51 µM (active) | 2.49 µM (inactive) | 1.62 µM (inactive) | 2.64 µM (inactive) | 0.581 µM (active) | 1.81 µM (inactive) | 0.6 µM (active) | 0.48 µM (active) | 1.29 µM (inactive) | 0.583 µM (active) | 21.4 µM (inactive)
5 | O=c1[nH]c(Nc2nc3ccccc3[nH]2)nc(O)c1-c1ccccc1 | > 100 µM (inactive) | > 100 µM | > 100 µM (inactive) | > 100 µM (inactive) | > 100 µM (inactive) | > 100 µM (inactive) | > 100 µM (inactive) | > 100 µM (inactive) | > 100 µM (inactive) | > 100 µM (inactive) | > 100 µM (inactive) | > 100 µM (inactive) | > 100 µM (inactive) | > 100 µM (inactive) | > 100 µM (inactive) | > 100 µM (inactive) | > 100 µM (inactive) | > 100 µM (inactive) | > 100 µM (inactive)
6 | C=C(C)[C@@H](O)[C@H](O)C[C@H](C)C1CC[C@]2(C)C1=CC[C@@H]1[C@@]3(C)CC[C@@H](OC(C)=O)C(C)(C)[C@@H]3C[C@@H](OC3OC(COC(C)=O)C(O)C(O)C3O)[C@]12C (stereo partly specified) | 3.21 µM (inactive) | 3.37 µM | 3.48 µM (inactive) | 2.96 µM (inactive) | 1.77 µM (inactive) | 2.37 µM (inactive) | 2.44 µM (inactive) | 2.02 µM (inactive) | 2.45 µM (inactive) | 3.05 µM (inactive) | 3.4 µM (inactive) | 3.71 µM (inactive) | 2.45 µM (inactive) | 3.33 µM (inactive) | 2.54 µM (inactive) | 3.66 µM (inactive) | 1.98 µM (inactive) | 3.44 µM (inactive) | 1.87 µM (inactive)
7 | CC(C)=CCC/C(C)=C/CC/C(C)=C/CC/C(C)=C/CC/C(C)=C\CC/C(C)=C/CC/C(C)=C/CC/C(C)=C/Cc1cc(O)ccc1O | 5.31 µM (inactive) | 1.69 µM | 1.33 µM (inactive) | 0.126 µM (active) | 0.682 µM (active) | 8.49 µM (inactive) | 4.75 µM (inactive) | 3.18 µM (inactive) | 3.41 µM (inactive) | 2.02 µM (inactive) | 19.4 µM (inactive) | 10 µM (inactive) | 2.57 µM (inactive) | 1.98 µM (inactive) | 0.424 µM (active) | 1.33 µM (inactive) | 0.344 µM (active) | 1.45 µM (inactive) | 9.27 µM (inactive)
8 | Cc1ccc(/C=N/n2c(-c3ccc(C)cc3)n[nH]c2=O)cc1 | 94.6 µM (inactive) | 66.7 µM | 41 µM (inactive) | > 100 µM (inactive) | > 100 µM (inactive) | 55.8 µM (inactive) | 79.8 µM (inactive) | 96.4 µM (inactive) | > 100 µM (inactive) | > 100 µM (inactive) | 91.6 µM (inactive) | 77.4 µM (inactive) | 21.5 µM (inactive) | 90.4 µM (inactive) | > 100 µM (inactive) | 50.4 µM (inactive) | 23.1 µM (inactive) | 29.6 µM (inactive) | 84.9 µM (inactive)
9 | CCOC(=O)c1cn2c(n1)sc1cc(OC)ccc12 | 7.41 µM (inactive) | 3.89 µM | 7.38 µM (inactive) | 5.13 µM (inactive) | 14.9 µM (inactive) | > 100 µM (inactive) | 8.75 µM (inactive) | 3.75 µM (inactive) | 33.2 µM (inactive) | 25.1 µM (inactive) | 4.07 µM (inactive) | 9.82 µM (inactive) | 29.8 µM (inactive) | > 69.7 µM (inactive) | > 100 µM (inactive) | 2.95 µM (inactive) | 13.8 µM (inactive) | 6.21 µM (inactive) | 14.7 µM (inactive)
10 | C/C(=N\NC(N)=S)c1sc(-n2nc(-c3ccccc3)cc2-c2ccccc2)nc1C | > 100 µM (inactive) | 94.4 µM | > 100 µM (inactive) | 51.6 µM (inactive) | > 100 µM (inactive) | > 100 µM (inactive) | > 100 µM (inactive) | – | > 100 µM (inactive) | > 100 µM (inactive) | > 100 µM (inactive) | > 100 µM (inactive) | > 100 µM (inactive) | > 100 µM (inactive) | > 100 µM (inactive) | > 100 µM (inactive) | > 100 µM (inactive) | > 100 µM (inactive) | > 100 µM (inactive)
11 | C=[N+](CNC(=O)CNC(=O)C(Cc1ccc([N+](=O)[O-])cc1)NC(=O)OC(C)(C)C)C(=O)CNC(=O)C(Cc1ccc([N+](=O)[O-])cc1)NC(=O)OC(C)(C)C (stereo unspecified) | 47.9 µM (inactive) | > 100 µM | > 100 µM (inactive) | 40.8 µM (inactive) | – | 38.1 µM (inactive) | > 100 µM (inactive) | 19 µM (inactive) | 32.9 µM (inactive) | 60.7 µM (inactive) | > 100 µM (inactive) | 37 µM (inactive) | > 100 µM (inactive) | 28.1 µM (inactive) | 30.1 µM (inactive) | 25.1 µM (inactive) | 39.4 µM (inactive) | 69.5 µM (inactive) | > 100 µM (inactive)
12 | O=c1c2cc(S(=O)(=O)O)ccc2nc(COc2ccc(Oc3ccc(Cl)cc3Cl)cc2)n1C(=S)Nc1ccc(Cl)cc1 | 18.8 µM (inactive) | 21 µM | 20.5 µM (inactive) | 20 µM (inactive) | 18.4 µM (inactive) | 18.1 µM (inactive) | 23.6 µM (inactive) | 1.06 µM (active) | 18.8 µM (inactive) | 18.2 µM (inactive) | 27.7 µM (inactive) | 33.4 µM (inactive) | 17.9 µM (inactive) | 19.6 µM (inactive) | – | 16.8 µM (inactive) | 15 µM (inactive) | 19.2 µM (inactive) | 19.8 µM (inactive)
13 | O=C(CC(C(=O)c1cccs1)c1ccsc1)c1cccs1 (stereo unspecified) | > 100 µM (inactive) | 71.3 µM | 91 µM (inactive) | 52.2 µM (inactive) | – | 94.2 µM (inactive) | > 100 µM (inactive) | 37.8 µM (inactive) | 12.8 µM (inactive) | > 100 µM (inactive) | > 100 µM (inactive) | > 100 µM (inactive) | 43.9 µM (inactive) | 81.8 µM (inactive) | 81.5 µM (inactive) | > 100 µM (inactive) | 53.6 µM (inactive) | > 100 µM (inactive) | > 100 µM (inactive)
14 | COC(=O)/C=C/CCC#Cc1ccccc1C#CCC/C=C/C(=O)OC | 7.38 µM (inactive) | 3.98 µM | 15.3 µM (inactive) | 6.41 µM (inactive) | – | 15.7 µM (inactive) | 23.7 µM (inactive) | 1.76 µM (inactive) | 2.89 µM (inactive) | 13.1 µM (inactive) | 32 µM (inactive) | 4.97 µM (inactive) | 12.4 µM (inactive) | 7.55 µM (inactive) | 47.5 µM (inactive) | 10.5 µM (inactive) | 4.49 µM (inactive) | 4.98 µM (inactive) | 23.5 µM (inactive)
